These results are taken from PubChem BioAssay AID1963973 (Molecular Pharmacology Branch, DTP, NCI, 2024).

Values joined by “and” are separate entries in the source; they are usually repeats but may differ in a detail not shown here. Identical values can stand only once.

The subject of this assay is 883617-216-R-J1-PDC tumor spheroids, viability. Briefly: Anticancer human tumor 883617-216-R-J1-PDC patient-derived bladder carcinoma cell line growth inhibition [PI3K]. The following applies: spheroids with HUVEC and MSC; for viability, T/C: stronger effect = lower value; for IC50: curve of compound. From the text:
Combinatorial screen of targeted agents with the PI3K inhibitors inavolisib, alpelisib, duvelisib, and copanlisib in multi-cell type tumor spheroids
A high-throughput screen of multi-cell type tumor spheroids was designed to identify active combinations of targeted small molecules and PI3K pathway inhibitors. Complex spheroids include a stromal component modeled by human endothelial cells (HUVEC) and fibroblasts modeled by human mesenchymal stem cells (MSCs). The concentration ranges selected for each drug and investigational agent were based upon clinically achievable concentrations if the clinical Cmax of the agent was known.
Compounds. The drugs and investigational agents: inavolisib (NSC800729), alpelisib (NSC765974), duvelisib (NSC772469), copanlisib (NSC816437), ipatasertib (NSC767898), afuresertib (NSC778305), talazoparib (NSC767125), sapanisertib (NSC764658), selumetinib (NSC741078), tovorafenib (DAY101, NSC766906), vemurafenib (NSC761431), ravoxertinib (NSC781343), sotorasib (NSC818433), MRTX1133 (NSC 836407), abemaciclib (NSC 768073), palbociclib (NSC758247), venetoclax (NSC 766270), SY5609 (NSC837396), enzalutamide (NSC755605), and darolutamide (NSC825331), were obtained from the National Cancer Institute (NCI) Developmental Therapeutics Program Chemical Repository. The FDA-approved anticancer drug set is available from the NCI Developmental Therapeutics Program. […] The stock solutions were prepared in dimethyl sulfoxide (DMSO, Sigma-Aldrich, St. Louis, MO, cat. D2650) at 800-fold the tested concentration and stored at -70 degrees C prior to their use. All drugs and investigational agents were tested over a range starting from a high concentration at or near the clinical Cmax and decreasing in half-log increments. If the clinical Cmax for an agent had not been determined, the highest concentration tested was 10 microM.
Cell Culture. All cells were maintained in an incubator at 37 degrees C and 5% CO2 with 95% humidity. The PDC lines were cultured according to standard operating procedures established by the NCI PDMR (https://pdmr.cancer.gov/sops/default.htm). All PDCs were thawed and cultured in Matrigel-coated flasks prepared with a working solution of 1X Ham's F-12 nutrient mix, without supplementation (Invitrogen, Waltham, MA, cat. 11765054), 100 U/mL penicillin-streptomycin (Invitrogen, cat. 15140122), and 2.5% Matrigel (Corning Inc., Corning, NY, cat. 354248) for the first three passages. The 354836-022-R-J1-PDC, 475296-252-R-J1-PDC, and 997726-040-R-J2-PDC lines were cultured in 6A media, which includes advanced DMEM/F-12 (Thermo Fisher Scientific, cat. 12634028), 10 mM HEPES (Thermo Fisher Scientific, cat. 15630080), 1X GlutaMAX supplement (Thermo Fisher Scientific, cat. 35050061), 0.1 mg/mL primocin (InvivoGen, San Diego, CA, cat. ant-pm-2), 10% defined fetal bovine serum, heat inactivated (HyClone Laboratories Inc., Logan, UT, cat. SH30070.03HI), 50% L-WRN conditioned media (ATCC, cat. CRL-3276), 1.25 mM N-Acetyl-L-cysteine (Sigma-Aldrich, cat. A9165), 10 mM nicotinamide (Sigma-Aldrich, cat. N0636), 1X B-27 supplement (Thermo Fisher Scientific, cat. 17504044), 1X N-2 supplement (Thermo Fisher Scientific, cat. 17502048), and 10 microM Y-27632 dihydrochloride (Tocris Bioscience, Bristol, United Kingdom, cat. 1254). The 624824-186-R-J2-PDC line was cultured in 6C/Colon 1B media, which includes all 6A media components plus 50 ng/mL human EGF recombinant protein (Thermo Fisher Scientific, cat. PHG0311). […]

The viability, T/C is the ratio of treated to control. A word on the IC50: it is the point on the concentration scale where inhibition reaches its midpoint.
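Also: spheroids exposed to agents for 7 days before the viability read.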

Regarding `C#Cc1c(F)ccc2cc(O)cc(-c3ncc4c(N5CC6CCC(C5)N6)nc(OCC56CCCN5CC(F)C6)nc4c3F)c12` (stereo not drawn), the half-maximal inhibitory concentration (IC50) is over 10 µM. The viability, T/C (compound 0.0316 µM) was 99.5% [middle of 4 runs]. In addition, the viability, T/C (compound 0.1 µM) is 95.7% [middle of 4 runs]. For the same compound, under “compound 0.316 µM”, the viability, T/C is 100% [middle of 4 runs]. Moreover, the viability, T/C (compound 1 µM) is 88% [middle of 4 runs]. The viability, T/C (compound 3.16 µM) is 80.5% (2×) and 102% and 88.1%. Moreover, the viability, T/C (compound 10 µM) is 65.8% [middle of 4 runs].
On to `C=CC(=O)N1CCN(c2nc(=O)n(-c3c(C)ccnc3C(C)C)c3nc(-c4c(O)cccc4F)c(F)cc23)C(C)C1` (stereo not drawn), for which the viability, T/C (compound 0.0316 µM) was 61.8% [middle of 4 runs]; the viability, T/C (compound 0.1 µM) is 48% [middle of 4 runs]; the viability, T/C (compound 0.316 µM) is 51.2% [middle of 4 runs]; the viability, T/C (compound 1 µM) was 58.9% [middle of 4 runs]; the viability, T/C (compound 3.16 µM) was 74.7% [middle of 4 runs]; the viability, T/C (compound 10 µM) was 66.4% [middle of 4 runs].
In the case of `CC(Cn1ccc(-c2ccc(C#N)c(Cl)c2)n1)NC(=O)c1cc(C(C)O)[nH]n1` (stereo not drawn), the half-maximal inhibitory concentration (IC50) is over 10 µM. Besides, under “compound 0.1 µM”, the viability, T/C is 90.8% [middle of 4 runs]. Moreover, the viability, T/C (compound 0.316 µM) is 104% [middle of 4 runs]. The viability, T/C (compound 1 µM) was 95.5% [middle of 4 runs]. Also, for the setting “compound 3.16 µM”, the viability, T/C is 110% [middle of 4 runs]. Also, the viability, T/C (compound 10 µM) is 102% [middle of 4 runs].
`CC1(C)CCC(Nc2ncc(C(F)(F)F)c(-c3c[nH]c4c(P(C)(C)=O)c(C#N)ccc34)n2)CN1` (stereo not drawn): the IC50 is under 0.0316 µM. Also, the viability, T/C (compound 0.0316 µM) is 38% [middle of 4 runs]. The viability, T/C (compound 0.1 µM) was 31.7% [middle of 4 runs]. Also, where the note is “compound 0.316 µM”, the viability, T/C is 28.7% [middle of 4 runs]. Under “compound 1 µM”, the viability, T/C was 30% [middle of 4 runs]. For the same compound, the viability, T/C (compound 3.16 µM) was 16.9% [middle of 4 runs]. Also, the viability, T/C (compound 10 µM) is 0.37% [middle of 4 runs].
In the case of `C[C@@H](NC(=O)c1ncnc(N)c1Cl)c1ncc(C(=O)Nc2cc(C(F)(F)F)c(Cl)cn2)s1`, the 50% inhibitory concentration (IC50) is over 10 µM. Further, the viability, T/C (compound 0.1 µM) was 96.9% [middle of 4 runs]. In addition, the viability, T/C (compound 0.316 µM) was 88.3% [middle of 4 runs]. The viability, T/C (compound 1 µM) is 96.5% [middle of 4 runs]. For the same compound, the viability, T/C (compound 3.16 µM) was 93.2% (2×) and 95.3% and 100%. In addition, the viability, T/C (compound 10 µM) is 73% [middle of 4 runs].
Regarding `Cn1ncc(Cl)c1-c1cc(C(=O)NC(CN)Cc2cccc(F)c2)sc1Cl` (stereo not drawn), the half-inhibitory concentration (IC50) is 571 nM [middle of 4 runs]. The viability, T/C (compound 0.0316 µM) is 98.2% [middle of 4 runs]. For the same compound, the viability, T/C (compound 0.1 µM) is 85% [middle of 4 runs]. In addition, the viability, T/C (compound 0.316 µM) is 63.8% [middle of 4 runs]. Besides, the viability, T/C (compound 1 µM) is 34.5% [middle of 4 runs]. For the setting “compound 3.16 µM”, the viability, T/C was 13.8% [middle of 4 runs].
